Values of other authors, collected in US20230285287A1, “PHARMACEUTICAL COMPOSITIONS” (DOUGLAS PHARMACEUTICALS LIMITED, priority 2019, published 2023).
Entries after “also recorded” stand apart in the source; their conditions may differ.

Conditions: known from the literature (Donato et al.)

SMILES: CC(C)c1nc(CN(C)C(=O)N[C@H](C(=O)N[C@@H](Cc2ccccc2)C[C@H](O)[C@H](Cc2ccccc2)NC(=O)OCc2cncs2)C(C)C)cs1 [Ritonavir, 1,3-thiazol-5-ylmethyl N-[(2S,3S,5S)-3-hydroxy-5-[[(2S)-3-methyl-2-[[methyl-[(2-propan-2-yl-1,3-thiazol-4-yl)methyl]carbamoyl]amino]butanoyl]amino]-1,6-diphenylhexan-2-yl]carbamate]
- chemical stability / degradation route: thermolytically driven; also recorded: particularly prone to hydrolysis; also recorded: oxygen labile
